Molecular target: α-glucosidase
Test: α-glucosidase inhibition assay (no method or enzyme source described)
Type: biochemical

Compound: COc1cc(OC)c2cc(C(=O)c3ccccc3)ccc2c1OC [Nigronapthaphenyl]
- IC50: 6.9 ± 0.5 µM

— PMC6781459, “The study of antimicrobial, anti-cancer, anti-inflammatory and α-glucosidase inhibitory activities of Nigronapthaphenyl, isolated from an extract of Nigrospora sphaerica” (Mycology, 2019)
